Laboratory results from PubChem BioAssay (NCI).
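Following 48 hours of exposure in 96-well plates, responses at five concentrations were used to interpolate endpoints linearly. At the GI50, growth is halved. TGI marks complete inhibition of growth.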

Legend:
Assay in all cases: NCI tumour cell line growth inhibition, 48 h
[1] = tested on: RXF 393 renal
[2] = tested on: TK-10 renal
[3] = tested on: A498 renal
[4] = tested on: PC-3 prostate
[5] = tested on: SK-MEL-28 melanoma
[6] = tested on: MDA-MB-231 breast
[7] = tested on: HOP-92 NSCLC
[8] = tested on: NCI-H460 lung
[9] = tested on: LOX IMVI melanoma
[10] = tested on: HCC-2998 colon

| Compound | TGI [1] | TGI [2] | TGI [3] | TGI [4] | TGI [5] | TGI [6] | TGI [7] | TGI [8] | TGI [9] | TGI [10] | GI50 [8] | GI50 [1] | GI50 [9] | GI50 [2] | GI50 [3] | GI50 [5] | GI50 [10] |
| --- | --- | --- | --- | --- | --- | --- | --- | --- | --- | --- | --- | --- | --- | --- | --- | --- | --- |
| CCCN=C1NC(C)=CSC(Nc2ccccc2)=C1C#N | > 100 µM | > 100 µM | > 100 µM | > 100 µM | > 100 µM | > 100 µM | – | – | – | – | – | – | – | – | – | – | – |
| NS(=O)(=O)c1ccc(-c2ccc([As](=O)(O)O)cc2)cc1 | > 100 µM | > 100 µM | – | > 100 µM | > 100 µM | > 100 µM | > 100 µM | > 100 µM | > 100 µM | – | – | – | – | – | – | – | – |
| [N-]=[N+]=Nc1cc(=O)[nH]c2ccccc12 | > 100 µM | > 100 µM | – | > 100 µM | > 100 µM | > 100 µM | > 100 µM | – | – | – | – | – | – | – | – | – | – |
| CCOC(=O)Cc1[nH]c(C(=O)c2ccccc2)cc1C(=O)c1ccccc1 | > 100 µM | > 100 µM | > 100 µM | > 10 µM | > 10 µM | > 10 µM | – | > 100 µM | > 100 µM | > 100 µM | – | – | – | – | – | – | – |
| CC(=O)/C=C(/C)[O-].CC(=O)/C=C(/C)[O-].CC(=O)[CH-]C(C)=O.CC(=O)[CH-]C(C)=O.[Zr+4] | > 100 µM | > 100 µM | > 100 µM | – | > 100 µM | – | – | > 100 µM | > 100 µM | > 100 µM | > 100 µM | > 100 µM | > 100 µM | > 100 µM | > 100 µM | > 100 µM | > 100 µM |
| Cc1nc(N)c(N2CCN(S(=O)(=O)N(Cc3ccccc3)Cc3ccccc3)CC2)c(=O)[nH]1 | – | 59 µM | – | 46.5 µM | 34.1 µM | > 100 µM | – | > 100 µM | > 100 µM | > 100 µM | – | – | – | – | – | – | – |
| NS(=O)(=O)c1nnc(NS(=O)(=O)c2cccc3cccnc23)s1 | > 100 µM | > 100 µM | > 100 µM | – | > 100 µM | > 100 µM | > 100 µM | > 100 µM | > 100 µM | > 100 µM | – | – | – | – | – | – | – |
| N#Cc1sc2c(c1OC(=O)c1ccco1)c(=O)n(-c1ccccc1)c(=S)n2-c1ccccc1 | 69.6 µM | > 100 µM | – | > 100 µM | > 100 µM | 73.8 µM | – | > 100 µM | 45.6 µM | > 100 µM | – | – | – | – | – | – | – |
| O=S(=O)(O)c1ccc(O)c(N=Nc2c(O)ccc3ccccc23)c1 | > 100 µM | > 100 µM | > 100 µM | > 100 µM | > 100 µM | > 100 µM | > 100 µM | – | > 100 µM | – | – | – | – | – | – | – | – |
| CSc1ccc(N2C(=O)C3c4[nH]c5ccccc5c4C4CCC(C(C)(C)C)CC4C3C2=O)cc1 (centres undefined) | 47.1 µM | 40.5 µM | 33.7 µM | – | 35.1 µM | – | 27.1 µM | 34.4 µM | 31.8 µM | 33.3 µM | – | – | – | – | – | – | – |
| CCOP(=O)(OCC)C(Nc1ccc(Cl)cc1)c1ccc(F)cc1 (centres undefined) | 67.3 µM | > 100 µM | 58.7 µM | – | 41.7 µM | 74.6 µM | 59.1 µM | 48.2 µM | 29.1 µM | 59.1 µM | – | – | – | – | – | – | – |
| Cc1cc2nc3c(C#N)c(C)c(CCCl)c(Cl)n3c2cc1C | – | 4.24 µM | 7.64 µM | 12.4 µM | 15.5 µM | 3.66 µM | 4.76 µM | > 36.6 µM | 2.88 µM | 6.23 µM | – | – | – | – | – | – | – |
| O=C(CSc1nc2ccc(I)cc2c(=O)n1Cc1ccccc1)Nc1ccccc1 | 34.1 µM | – | 46.4 µM | 31.9 µM | > 100 µM | > 100 µM | 75 µM | – | > 100 µM | – | – | – | – | – | – | – | – |
| Cc1ccc(/C=c2\c(=O)[nH]c3nc4ccccc4c(=O)n23)cc1 | 98.7 µM | > 100 µM | – | > 100 µM | > 100 µM | > 100 µM | > 100 µM | – | > 100 µM | 62.6 µM | – | – | – | – | – | – | – |
| Cc1cc(N(CCC#N)CCC#N)ccc1/C(N=Nc1ccc(C(=O)O)cc1)=N\NC(=O)c1ccccc1 | > 100 µM | > 100 µM | 84.4 µM | > 100 µM | – | > 100 µM | – | > 100 µM | – | > 100 µM | – | – | – | – | – | – | – |
| O=C(CC12C3C4C1C1C2C3C41CC(=O)NO)NO (centres undefined) | – | > 100 µM | 76.1 µM | – | > 100 µM | – | 97 µM | 62.5 µM | 74.5 µM | > 100 µM | – | – | – | – | – | – | – |
| O=c1c(O)c(-c2ccccc2)oc2c(CP(=O)(O)O)cccc12 | > 100 µM | > 100 µM | > 100 µM | > 100 µM | – | > 100 µM | – | > 100 µM | – | > 100 µM | – | – | – | – | – | – | – |
| O=[N+]([O-])c1c(O)c2nonc2c2nn(-c3ccccc3)nc12 | – | > 100 µM | – | > 100 µM | > 100 µM | – | > 100 µM | > 100 µM | > 100 µM | > 100 µM | – | – | – | – | – | – | – |
| COC(=O)N[C@@H]1C[C@H]2CC[C@]1(O[Si](C(C)C)(C(C)C)C(C)C)C(=O)C2 | – | 30.6 µM | 44.3 µM | 33.9 µM | 36.8 µM | 76.5 µM | 70.6 µM | > 100 µM | – | – | – | – | – | – | – | – | – |
| CC(=O)NC1C(OCc2ccccc2)OC(CO)C(O)C1OC(C)C(=O)NC(C(=O)NC(CCC(=O)NCCCNc1ccc([N+](=O)[O-])c2[nH]c3ccccc3c(=O)c12)C(N)=O)C(C)C (centres undefined) | – | > 100 µM | > 100 µM | > 100 µM | > 100 µM | > 100 µM | > 100 µM | > 100 µM | > 100 µM | – | – | – | – | – | – | – | – |
| CCn1c(CCCc2nc3c([nH]2)c(=O)n(C)c(=O)n3C)nc2c1c(=O)n(C)c(=O)n2C | > 100 µM | > 100 µM | > 100 µM | > 100 µM | > 100 µM | > 100 µM | – | > 100 µM | > 100 µM | > 100 µM | – | – | – | – | – | – | – |
| CC1(C)CCCCCC(O)C(O)CCC(C)(C)C1=O (centres undefined) | > 100 µM | > 100 µM | > 100 µM | > 100 µM | > 100 µM | > 100 µM | > 100 µM | > 100 µM | > 100 µM | – | – | – | – | – | – | – | – |
| COc1ccc(NC(=O)CSC(=O)c2ccccc2)c(SCCSSCCSc2cc(OC)ccc2NC(=O)CSC(=O)c2ccccc2)c1 | > 100 µM | > 100 µM | > 100 µM | > 100 µM | – | – | > 100 µM | > 100 µM | > 100 µM | – | – | – | – | – | – | – | – |
